Laboratory results: patent US4758312A, “Method for in situ corrosion detection using electrochemically active compounds” (Nalco Chemical Company, priority 1987, dated 1988)

Columns and labels:
[1] = Corrosion detection under typical cooling water conditions in recirculation tank (Example 7); settings: continuous 4 ppm feed from day 4, Inhibitor A
[2] = Water solubility of reduced form (formazan); type: physicochemical; settings: formazan of the synthesized tetrazolium compound
Source text: Because the reduced forms of the commercially available tetrazolium salts tested in Example 4 are insoluble, they would present a measurement problem when used in an actual corrosion detection test. The reduced form (the formazan) would precipitate at the corrosion site and be difficult to detect quantitatively in the water sample taken far from the corrosion site. Introduction of a functional group to give water solubility to the reduced form was done to eliminate this problem. Examples of such functional groups are carboxy (COOH), hydroxy (OH), sulfonic (OSO3 H), amino (NH2), etc. These could be introduced on any of the three "R" groups in the generalized tetrazolium structure given below by choosing the appropriate organic compound to be used in the synthesis. [drawing 4]

[3] = Commercial tetrazolium compounds, detection of iron corrosion (Example 4); settings: 0.1 percent solution, one percent sodium chloride

Compound | Formazan level, stabilized [1] | Water solubility of formazan formed [2] | Time to Color [3] [min]
O=C(O)c1ccc(-n2nc(-c3ccccc3)n[n+]2-c2ccccc2)cc1 [tetrazolium compound, 2-(p-carboxyphenyl)-3,5-diphenyltetrazolium bromide] | 2-3 ppb | water soluble | 
c1ccc(-c2nn(-c3ccccc3)[n+](-c3ccc(-c4ccc(-[n+]5nc(-c6ccccc6)nn5-c5ccccc5)cc4)cc3)n2)cc1 [Compound 8 (Table 6), 2,2',5,5'-tetraphenyl-3,3'(p-diphenylene)ditetrazolium chloride] |  |  | 35
